One test has as its target RyR1 (Sus scrofa, UniProt P16960). Kind of test: FLT-FRET between D-FKBP and A-CaM bound to RyR1 in skeletal SR membranes (HTS and dose-response). The settings on record: 30 nM Ca2+; for Effect on FRET: RyR1 samples, micromolar compound, GSSG or GSH. Set-up: RyR1 in skeletal SR membranes, and RyR2 in cardiac SR membranes; from tissue; host or cells: porcine longissimus dorsi muscle (heavy SR vesicles). It counts as binding, porcine. The procedure:
To confer compatibility with current HTS standards in industrial drug discovery facilities, we miniaturized our screening format from the previously established 384-well plates, requiring 50 μL sample per well[19], to 1536-well plates, requiring 5 μL sample per well. The complete 1280-compound library of pharmacologically active compounds (LOPAC) was applied as 5 nL/well in 40 columns of one 1536-well black-wall/black-bottom plate, with the remaining 8 columns loaded with 5 nL/well of DMSO, as no-drug controls. For each run of the screen, three plates were loaded with either (1) unlabeled HSR, or (2) HSR pre-incubated with donor-FKBP (D-FKBP; donor-only sample), or (3) donor-only sample that was additionally incubated with 0.3 μM acceptor-CaM (A-CaM) for 60 min prior to loading on the plate (donor-acceptor sample). This sub-saturating concentration of A-CaM was used to provide a readout that is sensitive to library compounds that may increase or decrease CaM binding affinity to RyR. To promote a homogenous population of RyR1 resembling that associated with myopathies, final assay conditions also included 30 nM Ca^2+ to represent resting (muscle relaxing) Ca^2+, and 5 mM oxidized glutathione (GSSG), which exaggerates the conditions associated with oxidative stress.
We acquired both FLT waveforms and fluorescence spectra, as previously described[19],[33],[34]. As previously observed, Hit effects were greatest following a 2-hour incubation with the library compounds (Supplementary Fig. 1a). As a result, all FRET results shown in Figs. 1 and 2, and Supplementary Fig. 2 are reported from the 2-hour incubation.
Necessary counter-screens to our pathological RyR1 conditions include evaluating compound effects in healthy conditions and on the cardiac isoform, RyR2. Using the same FRET assay as in HTS, we tested the dose response of key Hits from this screen and the previously HTS-identified RyR1 inhibitor, chloroxine, on healthy (5 mM GSH) and pathological (5 mM GSSG) conditions for both RyR1 in skeletal SR membranes, and RyR2 in cardiac SR membranes.
Skeletal HSR and cardiac CSR (0.4 mg/ml) membranes were independently pre-incubated with 60 nM D-FKBP, for 90 min, at 37 °C, in a solution containing 150 mM KCl, 5 mM GSH, 0.1 mg/mL BSA, 1 µg/mL Aprotinin/Leupeptin, 1 mM DTT and 20 mM PIPES (pH 7.0). To remove unbound D-FKBP, the SR membranes were spun down at 110,000 × g for 20 min, and then resuspended to 1 mg/mL (skeletal HSR) and 2 mg/mL (cardiac CSR) in binding buffer consisting of 150 mM KCl, 5 mM GSSG, 0.1 mg/mL BSA, 1μg/mL Aprotinin/Leupeptin and 20 mM PIPES, pH 7.0. These samples were then incubated with indicated [A-CaM] for 30 min at 22 °C in binding buffer containing 0.065 mM CaCl2 to give 30 nM free Ca^2+ in the presence of 1 mM EGTA (calculated by MaxChelator). This labeled SR sample was applied to the assay plates in 5 μL aliquots using a Multidrop™ Combi reagent dispenser (Thermo Scientific) with a standard-tube. An additional set of the assay plates were loaded with skeletal HSR or cardiac CSR labeled with only D-FKBP (no added A-CaM).
FLT measurements were conducted in a top-read FLT-PR designed and built by Fluorescence Innovations, Inc[33]. AF488 donor fluorescence was excited with a 473-nm microchip laser from Concepts Research Corporation (Belgium, WI), and emission was acquired with 490-nm long-pass and 517/20-nm band-pass filters (Semrock, Rochester, NY).
FLT waveforms for each well were fit based on a one-exponential decay function using least-squares minimization global-analysis software (Fluorescence Innovations, Inc.), as previously described[19],[33]. FRET efficiency (E) was determined as the fractional decrease of donor FLT (τD), due to the presence of acceptor fluorophore (τDA), using the following equation:1 E=1−τDA/τD, […]

Test [1] concerns electrically evoked Ca^2+ transients in rat skinned fibers. Kind of test: Electrically evoked Ca2+ transients (EC coupling) in rat skinned skeletal muscle fibers. Type of test: cell-based. The settings on record: field stimulation 1 Hz, 100 nM free Ca2+. The text has this:
To test the potential impact of these compounds on excitation contraction coupling, we measured voltage-induced Ca^2+ transients in rat skeletal muscle fibers. To do this, we again used mechanically skinned fibers. Because the t-system reseals upon mechanical skinning, bathing the preparation in a K^+-based cytoplasmic solution (with a small amount of Na^+) allows the Na^+-K^+ pump to re-establish the normal membrane potential. EC coupling can be initiated by exciting the preparation with field pulses that generate action potentials in the t-system to trigger Ca^2+ release[52]–[54]. Ca^2+ release is tracked by imaging rhod-2 in the cytoplasm via confocal microscopy in line-scan mode, and quantitatively plotted in Fig. 5 (based on recordings such as shown in Supplementary Fig. 7). A major advantage of using skinned fibers is that known concentrations of RyR modulators can be added to the cytoplasm, as they were added in the “leak” experiments. With this approach, we found 1 and 10 μM myricetin reduced Ca^2+ transient peak amplitude by 12% (P = 0.0046) and 48% (P < 0.0001), respectively (Fig. 5 and Supplementary Fig. 7a). In the case of chloroxine, only addition of 100 μM led to a detectable 14% (P < 0.0001) reduction in the Ca^2+ transient peak amplitude (Fig. 5 and Supplementary Fig. 7b). Therefore, both compounds, have impact on Ca^2+ transients that is markedly lower than their effect on the t-tubule readout of RyR1 [Ca^2+] leak (Figs. 4 and 5).
All experimental methods using rats were approved by The Animal Ethics Committee at The University of Queensland. Five month old Wistar rats (UQ Biological Resources, Brisbane) were euthanized by asphyxiation via CO2 exposure, and the extensor digitorum longus (EDL) were rapidly excised.
Skinned rat fibers were prepared and bathed in a resting physiological solution containing 100 nM Ca^2+, 1 mM Mg^2+, 36 mM Na^+, 126 mM K^+, 1 mM EGTA, 90 mM HEPES, […], 10 mM creatine phosphate and 8 mM ATP (pH 7.4). The Ca^2+ sensitive dye rhod-2 was used to track cytosolic Ca^2+ transients when exposed to electrical stimulation. […]

“Also recorded” adds a separate entry of the source.

Sequence of RyR1 (P16960 whole entry): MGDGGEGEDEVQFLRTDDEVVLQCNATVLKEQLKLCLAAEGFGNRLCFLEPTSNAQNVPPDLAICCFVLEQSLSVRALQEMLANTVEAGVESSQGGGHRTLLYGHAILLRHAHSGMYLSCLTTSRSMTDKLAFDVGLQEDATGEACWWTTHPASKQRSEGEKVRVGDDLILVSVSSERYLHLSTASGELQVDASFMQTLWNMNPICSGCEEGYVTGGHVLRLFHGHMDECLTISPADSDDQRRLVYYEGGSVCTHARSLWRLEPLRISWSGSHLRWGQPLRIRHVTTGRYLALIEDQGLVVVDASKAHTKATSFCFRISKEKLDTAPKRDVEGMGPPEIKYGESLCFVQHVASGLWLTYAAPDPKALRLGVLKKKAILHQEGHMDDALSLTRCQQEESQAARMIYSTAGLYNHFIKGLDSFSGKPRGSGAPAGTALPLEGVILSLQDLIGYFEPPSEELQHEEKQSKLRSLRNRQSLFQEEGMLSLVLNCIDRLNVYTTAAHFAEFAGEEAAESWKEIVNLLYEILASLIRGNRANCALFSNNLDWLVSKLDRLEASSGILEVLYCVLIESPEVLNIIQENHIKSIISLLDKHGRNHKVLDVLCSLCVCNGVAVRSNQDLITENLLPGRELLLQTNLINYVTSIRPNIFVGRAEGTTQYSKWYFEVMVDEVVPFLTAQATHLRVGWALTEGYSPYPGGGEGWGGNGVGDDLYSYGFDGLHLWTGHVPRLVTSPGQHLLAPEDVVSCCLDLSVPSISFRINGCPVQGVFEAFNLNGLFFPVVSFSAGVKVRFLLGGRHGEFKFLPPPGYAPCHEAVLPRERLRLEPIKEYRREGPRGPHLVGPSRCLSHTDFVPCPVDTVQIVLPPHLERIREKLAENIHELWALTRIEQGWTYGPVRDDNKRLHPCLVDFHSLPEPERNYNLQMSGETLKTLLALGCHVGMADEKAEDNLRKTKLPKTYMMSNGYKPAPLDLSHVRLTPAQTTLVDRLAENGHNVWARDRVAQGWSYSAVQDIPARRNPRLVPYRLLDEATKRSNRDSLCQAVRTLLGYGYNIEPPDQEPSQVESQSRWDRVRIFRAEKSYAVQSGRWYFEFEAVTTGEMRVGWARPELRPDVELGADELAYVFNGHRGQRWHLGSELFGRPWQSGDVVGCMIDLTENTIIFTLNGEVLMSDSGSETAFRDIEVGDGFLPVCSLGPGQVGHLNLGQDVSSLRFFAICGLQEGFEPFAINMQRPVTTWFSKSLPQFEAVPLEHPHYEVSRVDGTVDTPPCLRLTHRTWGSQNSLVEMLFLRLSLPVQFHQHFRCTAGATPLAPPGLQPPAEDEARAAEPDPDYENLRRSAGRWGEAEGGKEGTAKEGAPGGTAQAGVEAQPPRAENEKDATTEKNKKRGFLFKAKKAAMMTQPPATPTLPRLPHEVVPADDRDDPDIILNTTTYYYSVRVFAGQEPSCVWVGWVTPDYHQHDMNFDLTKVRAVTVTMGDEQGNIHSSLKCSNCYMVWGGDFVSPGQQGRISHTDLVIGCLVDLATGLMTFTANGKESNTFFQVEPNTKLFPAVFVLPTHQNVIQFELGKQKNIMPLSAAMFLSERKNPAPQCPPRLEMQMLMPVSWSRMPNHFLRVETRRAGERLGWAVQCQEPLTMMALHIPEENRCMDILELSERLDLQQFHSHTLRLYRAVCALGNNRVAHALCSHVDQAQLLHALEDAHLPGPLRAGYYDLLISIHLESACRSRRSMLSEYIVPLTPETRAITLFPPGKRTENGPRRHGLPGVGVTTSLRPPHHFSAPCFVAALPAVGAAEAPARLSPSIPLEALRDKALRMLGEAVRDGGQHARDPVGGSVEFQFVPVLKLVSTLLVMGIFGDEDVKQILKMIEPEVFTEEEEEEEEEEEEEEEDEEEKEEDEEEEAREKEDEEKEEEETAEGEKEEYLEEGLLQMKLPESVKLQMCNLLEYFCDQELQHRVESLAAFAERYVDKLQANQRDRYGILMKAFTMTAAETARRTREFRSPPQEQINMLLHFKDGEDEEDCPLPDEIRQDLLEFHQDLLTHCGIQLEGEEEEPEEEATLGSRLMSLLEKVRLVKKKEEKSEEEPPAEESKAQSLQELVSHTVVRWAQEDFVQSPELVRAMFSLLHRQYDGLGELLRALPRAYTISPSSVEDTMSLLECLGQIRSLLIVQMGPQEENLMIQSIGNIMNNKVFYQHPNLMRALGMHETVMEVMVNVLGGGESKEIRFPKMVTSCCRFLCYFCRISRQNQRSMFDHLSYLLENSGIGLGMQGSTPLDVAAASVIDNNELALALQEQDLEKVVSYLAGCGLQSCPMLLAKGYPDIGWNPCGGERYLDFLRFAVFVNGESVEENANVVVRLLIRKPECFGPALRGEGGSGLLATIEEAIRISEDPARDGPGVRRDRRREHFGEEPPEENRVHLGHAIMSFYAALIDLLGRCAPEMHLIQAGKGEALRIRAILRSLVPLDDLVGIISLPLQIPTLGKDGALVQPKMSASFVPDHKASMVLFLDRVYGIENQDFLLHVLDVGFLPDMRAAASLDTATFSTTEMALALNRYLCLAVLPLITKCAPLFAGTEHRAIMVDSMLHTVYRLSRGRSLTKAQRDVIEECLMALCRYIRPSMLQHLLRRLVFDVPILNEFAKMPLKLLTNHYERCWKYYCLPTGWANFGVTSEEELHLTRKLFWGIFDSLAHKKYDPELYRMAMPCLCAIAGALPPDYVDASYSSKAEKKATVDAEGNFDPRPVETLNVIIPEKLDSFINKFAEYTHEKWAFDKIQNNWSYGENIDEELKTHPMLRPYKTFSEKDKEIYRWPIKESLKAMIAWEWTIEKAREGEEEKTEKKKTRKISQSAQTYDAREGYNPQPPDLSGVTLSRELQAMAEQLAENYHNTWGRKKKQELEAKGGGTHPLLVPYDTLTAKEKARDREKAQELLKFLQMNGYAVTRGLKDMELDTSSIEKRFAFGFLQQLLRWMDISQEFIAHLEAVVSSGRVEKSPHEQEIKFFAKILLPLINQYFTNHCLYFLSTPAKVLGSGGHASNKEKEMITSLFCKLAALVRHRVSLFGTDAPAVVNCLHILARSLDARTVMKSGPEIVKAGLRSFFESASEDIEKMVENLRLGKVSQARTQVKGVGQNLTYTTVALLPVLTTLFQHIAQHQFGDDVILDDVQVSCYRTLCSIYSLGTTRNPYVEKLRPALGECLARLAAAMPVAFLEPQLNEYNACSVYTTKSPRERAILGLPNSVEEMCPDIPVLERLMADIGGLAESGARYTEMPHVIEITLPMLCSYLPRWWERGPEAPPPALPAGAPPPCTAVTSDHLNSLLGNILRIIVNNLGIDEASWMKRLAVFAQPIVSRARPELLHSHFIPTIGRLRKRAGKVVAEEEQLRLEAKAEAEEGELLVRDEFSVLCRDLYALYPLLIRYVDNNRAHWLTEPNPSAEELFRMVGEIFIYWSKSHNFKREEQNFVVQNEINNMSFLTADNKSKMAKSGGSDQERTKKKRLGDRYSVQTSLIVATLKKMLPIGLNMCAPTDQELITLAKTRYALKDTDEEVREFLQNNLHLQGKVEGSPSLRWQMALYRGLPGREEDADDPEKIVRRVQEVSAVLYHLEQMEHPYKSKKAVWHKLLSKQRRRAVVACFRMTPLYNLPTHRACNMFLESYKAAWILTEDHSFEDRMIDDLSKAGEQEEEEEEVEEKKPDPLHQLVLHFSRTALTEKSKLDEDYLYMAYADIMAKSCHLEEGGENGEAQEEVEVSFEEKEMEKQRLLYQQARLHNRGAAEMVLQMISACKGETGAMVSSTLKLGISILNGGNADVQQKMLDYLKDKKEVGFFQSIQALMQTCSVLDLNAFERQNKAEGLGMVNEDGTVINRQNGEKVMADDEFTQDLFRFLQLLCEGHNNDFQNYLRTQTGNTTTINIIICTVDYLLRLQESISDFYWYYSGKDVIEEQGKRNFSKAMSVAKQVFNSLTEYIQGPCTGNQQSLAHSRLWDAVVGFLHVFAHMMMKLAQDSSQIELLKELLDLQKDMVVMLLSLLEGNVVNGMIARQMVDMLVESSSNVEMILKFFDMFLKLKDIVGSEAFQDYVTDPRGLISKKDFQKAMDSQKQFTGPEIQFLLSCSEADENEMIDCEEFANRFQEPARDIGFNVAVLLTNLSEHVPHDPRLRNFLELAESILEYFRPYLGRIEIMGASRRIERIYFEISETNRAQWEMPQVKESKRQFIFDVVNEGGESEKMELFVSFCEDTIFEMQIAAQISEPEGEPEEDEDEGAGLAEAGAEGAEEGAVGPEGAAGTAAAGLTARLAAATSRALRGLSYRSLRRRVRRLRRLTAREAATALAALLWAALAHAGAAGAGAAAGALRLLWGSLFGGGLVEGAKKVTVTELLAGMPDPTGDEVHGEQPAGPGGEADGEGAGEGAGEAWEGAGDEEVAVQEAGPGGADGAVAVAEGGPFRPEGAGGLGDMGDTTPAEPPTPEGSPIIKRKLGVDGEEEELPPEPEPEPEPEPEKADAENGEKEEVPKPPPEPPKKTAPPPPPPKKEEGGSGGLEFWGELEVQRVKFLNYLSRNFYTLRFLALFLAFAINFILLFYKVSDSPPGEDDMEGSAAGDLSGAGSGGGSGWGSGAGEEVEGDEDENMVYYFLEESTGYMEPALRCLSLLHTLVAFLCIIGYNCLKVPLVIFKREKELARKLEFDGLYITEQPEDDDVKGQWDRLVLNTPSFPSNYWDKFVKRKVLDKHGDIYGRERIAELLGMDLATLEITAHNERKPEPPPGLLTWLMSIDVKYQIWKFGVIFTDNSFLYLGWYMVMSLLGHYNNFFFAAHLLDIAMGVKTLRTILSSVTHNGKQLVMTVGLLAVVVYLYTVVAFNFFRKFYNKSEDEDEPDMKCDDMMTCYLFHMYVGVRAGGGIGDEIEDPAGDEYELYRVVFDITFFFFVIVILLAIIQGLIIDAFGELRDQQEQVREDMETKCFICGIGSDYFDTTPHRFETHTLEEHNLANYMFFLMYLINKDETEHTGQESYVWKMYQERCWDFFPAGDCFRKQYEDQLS

Take `Oc1c(Cl)cc(Cl)c2cccnc12` [chloroxine]: the “Effect on FRET” value at RyR1 was “increased”. In test [1] (100 μM compound), the “Reduction of Ca2+ transient peak amplitude” value is recorded as 14%.

As for `O=c1c(O)c(-c2cc(O)c(O)c(O)c2)oc2cc(O)cc(O)c12` [myricetin], the “Hit in primary FLT-FRET HTS of LOPAC (FRET altered by > 4 SD vs DMSO)” value on RyR1 (10 μM compound, 2-hour incubation, 5 mM GSSG, 0.3 μM A-CaM, 1536-well) is on record as “identified; also recorded: increased the FRET efficiency readout”. Further, the “Effect on FRET” value on RyR1 is on record as “increases FRET”. In addition, the “Reduction of Ca2+ transient peak amplitude” value came out at 12% in test [1] (1 μM compound) and 48% in test [1] (10 μM compound).
